From US20200291018A1, “TAM KINASE INHIBITORS” (SYROS PHARMACEUTICALS, INC., priority 2017, published 2020)

How the values were obtained:
TYRO3 = target: T1, TYRO3 (Homo sapiens, UniProt Q06418); assay: TR-FRET kinase activity assay, TYRO3; type: biochemical; conditions: ATP at Km, 60 minutes
T1 sequence (Q06418 41-890): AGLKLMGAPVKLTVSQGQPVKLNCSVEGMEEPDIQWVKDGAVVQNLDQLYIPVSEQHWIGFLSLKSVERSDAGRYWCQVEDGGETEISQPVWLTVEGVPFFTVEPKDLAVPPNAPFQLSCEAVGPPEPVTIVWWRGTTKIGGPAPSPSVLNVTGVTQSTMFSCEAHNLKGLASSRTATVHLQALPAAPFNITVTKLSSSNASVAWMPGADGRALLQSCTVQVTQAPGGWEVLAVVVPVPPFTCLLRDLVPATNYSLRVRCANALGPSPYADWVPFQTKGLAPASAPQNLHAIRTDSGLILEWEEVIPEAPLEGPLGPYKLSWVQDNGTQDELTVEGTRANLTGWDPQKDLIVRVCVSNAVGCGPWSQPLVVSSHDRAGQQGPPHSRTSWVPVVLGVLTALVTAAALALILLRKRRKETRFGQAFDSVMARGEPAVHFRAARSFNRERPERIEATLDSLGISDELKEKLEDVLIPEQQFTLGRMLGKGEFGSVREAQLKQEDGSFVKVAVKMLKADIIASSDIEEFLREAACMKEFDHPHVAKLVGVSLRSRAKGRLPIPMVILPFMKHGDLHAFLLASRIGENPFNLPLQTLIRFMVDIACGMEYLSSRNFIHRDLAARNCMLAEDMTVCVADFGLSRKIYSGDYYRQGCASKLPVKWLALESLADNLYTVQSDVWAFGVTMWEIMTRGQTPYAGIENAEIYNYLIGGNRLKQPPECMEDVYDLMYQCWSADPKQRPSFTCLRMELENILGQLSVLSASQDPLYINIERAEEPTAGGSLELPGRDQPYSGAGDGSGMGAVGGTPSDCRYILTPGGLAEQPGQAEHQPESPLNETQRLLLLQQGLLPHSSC
Summary of the method: (§1)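 Each kinase phosphorylates a fluorescently labeled peptide on tyrosine in the presence of compound, with ATP at its Km, for 60 min at RT in HEPES pH 7.5 buffer with MgCl2, EGTA, Brij 35 and DTT. Product is detected by TR-FRET with a Europium-labeled phospho-specific antibody; IC50 values follow.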

FLT3 = target: T2, FLT3 (Homo sapiens, UniProt P36888); assay: TR-FRET kinase activity assay, FLT3; type: biochemical; conditions: ATP at Km, 60 minutes
T2 sequence (P36888 27-993): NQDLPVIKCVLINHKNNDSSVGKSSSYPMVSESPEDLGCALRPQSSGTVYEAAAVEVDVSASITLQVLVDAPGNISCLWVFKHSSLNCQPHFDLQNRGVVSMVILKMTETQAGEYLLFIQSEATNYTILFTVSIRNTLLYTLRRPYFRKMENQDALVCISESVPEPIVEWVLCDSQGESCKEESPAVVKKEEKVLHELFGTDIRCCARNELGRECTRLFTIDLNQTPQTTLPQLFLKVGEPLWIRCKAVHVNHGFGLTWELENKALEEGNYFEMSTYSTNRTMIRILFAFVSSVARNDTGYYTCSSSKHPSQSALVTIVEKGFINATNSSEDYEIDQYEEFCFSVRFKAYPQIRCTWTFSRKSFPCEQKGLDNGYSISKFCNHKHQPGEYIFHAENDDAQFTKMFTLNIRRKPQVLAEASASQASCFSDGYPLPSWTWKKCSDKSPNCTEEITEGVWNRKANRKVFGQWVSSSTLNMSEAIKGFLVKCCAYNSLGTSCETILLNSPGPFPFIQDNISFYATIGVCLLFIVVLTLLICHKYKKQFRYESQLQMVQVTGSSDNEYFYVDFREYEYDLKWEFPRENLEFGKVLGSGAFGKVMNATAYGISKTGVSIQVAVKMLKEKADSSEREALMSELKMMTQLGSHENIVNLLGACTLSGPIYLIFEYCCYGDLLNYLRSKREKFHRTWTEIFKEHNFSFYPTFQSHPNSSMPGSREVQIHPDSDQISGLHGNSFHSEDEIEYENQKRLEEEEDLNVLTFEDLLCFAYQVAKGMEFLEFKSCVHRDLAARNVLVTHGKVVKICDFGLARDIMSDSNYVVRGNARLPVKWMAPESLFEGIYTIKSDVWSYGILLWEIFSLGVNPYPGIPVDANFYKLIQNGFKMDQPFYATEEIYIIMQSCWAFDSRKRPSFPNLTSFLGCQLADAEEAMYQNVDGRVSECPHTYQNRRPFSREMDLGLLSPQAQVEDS
Summary of the method: as §1

Row | SMILES | IC50 (TYRO3) [nM] | IC50 (FLT3) [nM]
1 | C[C@@H](CCF)Nc1ncc2c(OC3CCOCC3)ncc([C@H]3CC[C@H](O)CC3)c2n1 [Compound 311] | ≤ 100 | 1000 to 10000
2 | COCC[C@H](C)Nc1ncc2c(OC3CCOCC3)ncc([C@H]3CC[C@H](O)CC3)c2n1 [Compound 312] | 100 to 1000 | 1000 to 10000
3 | CC(C)Nc1ncc2c(OC3CCOCC3)ncc(-c3cccc(S(C)(=O)=O)c3)c2n1 [Compound 313] | 100 to 1000 | 1000 to 10000
4 | COC[C@H](C)Nc1ncc2c(OC3CCOCC3)ncc([C@H]3CC[C@H](NC(C)=O)CC3)c2n1 [Compound 315] | 100 to 1000 | 1000 to 10000
5 | COC[C@H](C)Nc1ncc2c(OC3CCOCC3)ncc([C@H]3CC[C@H](NS(C)(=O)=O)CC3)c2n1 [Compound 316] | ≤ 100 | 1000 to 10000
6 | CNS(=O)(=O)N[C@H]1CC[C@H](c2cnc(OC3CCOCC3)c3cnc(N[C@@H](C)COC)nc32)CC1 [Compound 317] | ≤ 100 | > 10000
7 | COC[C@H](C)Nc1ncc2c(OC3CCOCC3)ncc(-c3cccc(C#N)c3)c2n1 [Compound 320] | 100 to 1000 | 1000 to 10000
8 | CN1C[C@H](Nc2ncc3c(OC4CCOCC4)ncc([C@H]4CC[C@H](O)CC4)c3n2)CC1=O [Compound 323] | 1000 to 10000 | 1000 to 10000
9 | COC[C@H](C)Nc1ncc2c(OC3CCOCC3)ncc(-c3cccc(C(N)=O)c3)c2n1 [Compound 325] | 1000 to 10000 | 1000 to 10000
10 | COC[C@H](C)Nc1ncc2c(OC3CCOCC3)ncc([C@H]3CC[C@@](O)(C(F)(F)F)CC3)c2n1 [Compound 329] | 100 to 1000 | 1000 to 10000
11 | COC[C@H](C)Nc1ncc2c(OC3CCOCC3)ncc([C@H]3CC[C@](O)(C(F)(F)F)CC3)c2n1 [Compound 330] | 100 to 1000 | 1000 to 10000
12 | COC[C@H](C)Nc1ncc2c(OC3CCOCC3)ncc([C@H]3CCCN(C)C3)c2n1 [Compound 332] | 100 to 1000 | 1000 to 10000
13 | COC[C@H](C)Nc1ncc2c(OC3CCOCC3)ncc(-c3cnn([C@H]4CCN(C)C4)c3)c2n1 [Compound 334] | 100 to 1000 | 1000 to 10000
14 | COC[C@H](C)Nc1ncc2c(OC3CCOCC3)ncc(-c3ccc(CO)cc3)c2n1 [Compound 335] | 100 to 1000 | 1000 to 10000
15 | O[C@H]1CC[C@H](c2cnc(OC3CCOCC3)c3cnc(N[C@H]4CCC(F)(F)C4)nc32)CC1 [Compound 336] | 100 to 1000 | 100 to 1000
16 | CNS(=O)(=O)N1CCC(c2cnc(OC3CCOCC3)c3cnc(N[C@@H](C)COC)nc23)CC1 [Compound 341] | 100 to 1000 | 1000 to 10000
17 | COC[C@H](C)Nc1ncc2c(OC3C[C@H]4CC[C@@H](C3)N4C)ncc([C@H]3CC[C@H](O)CC3)c2n1 (some centres unmarked) [Compound 343] | ≤ 100 | 1000 to 10000
18 | COC[C@H](C)Nc1ncc2c(OC3CCN(c4ncccn4)CC3)ncc([C@H]3CC[C@H](O)CC3)c2n1 [Compound 344] | 100 to 1000 | 1000 to 10000
19 | CNC(=O)N1CCC(c2cnc(OC3CCOCC3)c3cnc(N[C@@H](C)COC)nc23)CC1 [Compound 345] | 1000 to 10000 | 1000 to 10000
20 | COC[C@H](C)Nc1ncc2c(OC3CCOCC3)ncc(C3CCCCN3)c2n1 (some centres unmarked) [Compound 346] | 1000 to 10000 | 1000 to 10000
21 | COC[C@H](C)Nc1ncc2c(C3CC3)ncc([C@H]3CC[C@H](O)CC3)c2n1 [Compound 349] | ≤ 100 | 1000 to 10000
22 | COC[C@H](C)Nc1ncc2c(OC3CCOCC3)ncc(C3CCCCN3C)c2n1 (some centres unmarked) [Compound 350] | 1000 to 10000 | 1000 to 10000
23 | COC[C@@H](C)Nc1ncc2c(OC3CC(O)C3)ncc([C@H]3CC[C@H](O)CC3)c2n1 (some centres unmarked) [Compound 351] | ≤ 100 | 1000 to 10000
24 | O=C(O)[C@H]1CC[C@@H](Nc2ncc3c(OC4CCOCC4)ncc([C@H]4CC[C@H](O)CC4)c3n2)CC1 [Compound 353] | 1000 to 10000 | 1000 to 10000
25 | COC[C@H](C)Nc1ncc2c(O[C@@H]3CCOC3)ncc([C@H]3CC[C@H](O)CC3)c2n1 [Compound 354] | 100 to 1000 | 1000 to 10000

Now from value to compound:

Row | IC50 (TYRO3) [nM] | IC50 (FLT3) [nM] | SMILES
26 | 100 to 1000 | 1000 to 10000 | COC[C@H](C)Nc1ncc2c(OC3CCOCC3)ncc(-c3cnn([C@@H]4CCN(C)C4)c3)c2n1 [Compound 314]
27 | 100 to 1000 | 1000 to 10000 | CC(C)Nc1ncc2c(OC3CCOCC3)ncc(-c3cccc(S(=O)(=O)C(C)C)c3)c2n1 [Compound 318]
28 | 100 to 1000 | 1000 to 10000 | COC[C@H](C)Nc1ncc2c(OC3CCOCC3)ncc(-c3ccc(CC#N)cc3)c2n1 [Compound 319]
29 | ≤ 100 | 100 to 1000 | CC[C@H](C)Nc1ncc2c(O[C@H]3CC[C@H](N)CC3)ncc([C@H]3CC[C@H](O)CC3)c2n1 [Compound 321]
30 | 100 to 1000 | 100 to 1000 | CN(C)S(=O)(=O)c1cccc(-c2cnc(OC3CCOCC3)c3cnc(NC4(C)CC4)nc23)c1 [Compound 322]
31 | 1000 to 10000 | 1000 to 10000 | CN1C[C@@H](Nc2ncc3c(OC4CCOCC4)ncc([C@H]4CC[C@H](O)CC4)c3n2)CC1=O [Compound 324]
32 | 100 to 1000 | ≤ 100 | COC[C@H](C)Nc1ncc2c(OC3CCOCC3)ncc([C@H]3CCCNC3)c2n1 [Compound 326]
33 | 1000 to 10000 | 1000 to 10000 | COC[C@H](C)Nc1ncc2c(OC3CCOCC3)ncc([C@@H]3CCCNC3)c2n1 [Compound 327]
34 | 100 to 1000 | 1000 to 10000 | COC[C@H](C)Nc1ncc2c(OC3CCOCC3)ncc(-c3cccc(S(N)(=O)=O)c3)c2n1 [Compound 328]
35 | ≤ 100 | ≤ 100 | N#Cc1ccc(Nc2ncc3c(OC4CCNCC4)ncc([C@H]4CC[C@H](O)CC4)c3n2)cc1 [Compound 331]
36 | 1000 to 10000 | 1000 to 10000 | COC[C@H](C)Nc1ncc2c(OC3CCOCC3)ncc([C@@H]3CCCN(C)C3)c2n1 [Compound 333]
37 | 100 to 1000 | 1000 to 10000 | COC[C@H](C)Nc1ncc2c(OC3CCOCC3)ncc(-c3ccc(N)nc3)c2n1 [Compound 337]
38 | 100 to 1000 | 1000 to 10000 | C[C@H](CC(F)(F)F)Nc1ncc2c(OC3CCOCC3)ncc([C@H]3CC[C@H](O)CC3)c2n1 [Compound 338]
39 | 100 to 1000 | 1000 to 10000 | CCC1(Nc2ncc3c(OC4CCOCC4)ncc([C@H]4CC[C@H](O)CC4)c3n2)CC1 [Compound 339]
40 | 100 to 1000 | 1000 to 10000 | CNC(=O)N[C@H]1CC[C@H](c2cnc(OC3CCOCC3)c3cnc(N[C@@H](C)COC)nc32)CC1 [Compound 340]
41 | 1000 to 10000 | 1000 to 10000 | COC[C@H](C)Nc1ncc2c(OC3CCOCC3)ncc(-c3ccnnc3)c2n1 [Compound 342]
42 | 100 to 1000 | 100 to 1000 | COC[C@H](C)Nc1ncc2c(OC3CCOCC3)ncc(-c3cn[nH]c3)c2n1 [Compound 347]
43 | ≤ 100 | 1000 to 10000 | C[C@@H](CC(F)(F)F)Nc1ncc2c(OC3CCN(C)CC3)ncc([C@H]3CC[C@H](O)CC3)c2n1 [Compound 352]
